Where two headings read alike, the source gives them in different places.
Tested on: T. brucei lysate proteins
Type: binding, Trypanosoma brucei

In the case of Nc1nc2cccc(-c3ccccc3)c2n1Cc1ccc(Cl)c(Cl)c1 [compound 3], the “fold change - vehicle control” value (protein TB927.7.5340 HY[…], CONSERVED) is reported as 0.45, the “fold change - vehicle control” value (protein TB927.7.7430 ATP SYNTHASE ALPHA CHAIN, MIT[…]) is reported as 0.95 and the “fold change - vehicle control” value (protein TB927.8.1990 PEROXIDOXIN) is reported as 0.95. The “fold change - vehicle control” value (protein TB927.8.4720 AMINO ACID TRANSPORTER, PUTATIVE) was 0.82, the “fold change - vehicle control” value (protein TB927.8.890 SMALL GTP-BINDING PROTEIN RAB1, PUTATIVE) was 0.96 and the fold change (relative to vehicle control = 1, protein TB09.160.2550 RIBOSOMAL PROTEIN S7, PUTATIVE) was 0.97. It also gave a fold change (relative to vehicle control = 1, protein TB09.160.3270 ATP-DEPENDENT DEAD BOX HELICASE, PUTATIVE) of 1, a fold change (relative to vehicle control = 1, protein TB09.160.4250 TR[…]) of 0.95 and a fold change (relative to vehicle control = 1, protein TB09.211.3540 GLYCEROL KINASE, GLYCOSOMAL) of 0.92. For the same compound, the fold change (relative to vehicle control = 1, protein TB11.01.1270 NUCLEIC ACID BINDING PROTEIN, PUTATIVE) was 0.99, the fold change (relative to vehicle control = 1, protein TB11.02.1135 DYNEIN LIGHT CHAIN, PUTATIVE) was 1 and the fold change (relative to vehicle control = 1, protein TB11.02.2960 MIT[…] PROTEIN, PUTATIVE) was 0.96. It also gave a fold change (relative to vehicle control = 1, protein TB11.02.4700 14-3-3 PROTEIN) of 0.87, a fold change (relative to vehicle control = 1, protein TB11.03.0815 DYNEIN LIGHT CHAIN) of 0.99 and a fold change (relative to vehicle control = 1, protein TB427TMP.01.0480 HY[…], CONSERVED) of 0.95. It also gave a fold change (relative to vehicle control = 1, protein TB427TMP.01.1400 GLYCYL-TRNA SYNTHETASE, PUTATIVE) of 0.9, a fold change (relative to vehicle control = 1, protein TB427TMP.01.1680 POLYUBIQUITIN, PUTATIVE) of 0.93 and a fold change (relative to vehicle control = 1, protein TB427TMP.01.1830 HY[…], CONSERVED) of 1. It also gave a fold change (relative to vehicle control = 1, protein TB427TMP.01.3370 […] PROTEIN, PUTATIVE) of 0.94, a fold change (relative to vehicle control = 1, protein TB427TMP.01.6880 CYTOSOLIC COAT PROTEIN, PUTATIVE) of 0.81 and a fold change (relative to vehicle control = 1, protein TB427TMP.01.7530 HY[…], CONSERVED) of 0.93. For the same compound, the fold change (relative to vehicle control = 1, protein TB427TMP.02.1120 ADENYL[…], PUTATIVE) was 0.99, the fold change (relative to vehicle control = 1, protein TB427TMP.02.1460 HY[…], CONSERVED) was 0.95 and the fold change (relative to vehicle control = 1, protein TB427TMP.02.2120 NUCLEOPORIN 48) was 0.94. For the same compound, the fold change (relative to vehicle control = 1, protein TB427TMP.02.2970 KINESIN, PUTATIVE) was 0.91, the fold change (relative to vehicle control = 1, protein TB427TMP.02.3120 MALIC ENZYME, PUTATIVE) was 0.82 and the fold change (relative to vehicle control = 1, protein TB427TMP.02.4550 HY[…], CONSERVED) was 1. The fold change (relative to vehicle control = 1, protein TB427TMP.02.5450 GLUCOSE-REGULATED PROTEIN 78, PUTATIVE) was 0.93, the fold change (relative to vehicle control = 1, protein TB427TMP.03.0090 RIBOKINASE, PUTATIVE) was 0.84 and the fold change (relative to vehicle control = 1, protein TB427TMP.160.4770 PROTEIN KINASE, PUTATIVE) was 0.93. For the same compound, the fold change (relative to vehicle control = 1, protein TB427TMP.160.4910 FLAVOPROTEIN MONOOXYGENASE, PUTATIVE) was 0.97, the fold change (relative to vehicle control = 1, protein TB427TMP.18.0005 HY[…], CONSERVED) was 0.93 and the fold change (relative to vehicle control = 1, protein TB427TMP.22.0004 HY[…], CONSERVED) was 0.97. For the same compound, the fold change (relative to vehicle control = 1, protein TB427TMP.39.0006 T[…] EIF2B DELTA SUBUNIT, PUTATIVE) was 0.9, the fold change (relative to vehicle control = 1, protein TB427.01.4050 PROTEIN P[…] EF-HAND DOMAINS (PPEF)) was 0.93 and the fold change (relative to vehicle control = 1, protein TB427.02.1170 RETRO[…] SPOT (RHS) PROTEIN, PUTATIVE) was 0.96. For the same compound, the fold change (relative to vehicle control = 1, protein TB427.02.6220 ADENOSINE TRANSPORTER 2, PUTATIVE) was 0.98, the fold change (relative to vehicle control = 1, protein TB427.03.3160 POLY(A) POLYMERASE) was 0.77 and the fold change (relative to vehicle control = 1, protein TB427.03.3560 HY[…], CONSERVED) was 0.83. It also gave a fold change (relative to vehicle control = 1, protein TB427.03.5420 PROTEIN TRANSPORT PROTEIN SEC24) of 0.9, a fold change (relative to vehicle control = 1, protein TB427.04.1510 PHOSPHOLIPID-TRA[…], PUTATIVE) of 0.86 and a fold change (relative to vehicle control = 1, protein TB427.05.2320 HY[…], CONSERVED) of 0.8. The fold change (relative to vehicle control = 1, protein TB427.05.300 THYMINE-7-HYDROXYLASE, PUTATIVE) was 0.82, the fold change (relative to vehicle control = 1, protein TB427.05.4530 FATTY ACID ELONGASE, PUTATIVE) was 0.77 and the fold change (relative to vehicle control = 1, protein TB427.05.520 STOMATIN-LIKE PROTEIN, PUTATIVE) was 1. For the same compound, the fold change (relative to vehicle control = 1, protein TB427.06.2550 RNA-BINDING PROTEIN, PUTATIVE) was 1.2, the fold change (relative to vehicle control = 1, protein TB427.06.3650 ADP-RI[…], PUTATIVE) was 0.91 and the fold change (relative to vehicle control = 1, protein TB427.06.3860 HY[…], CONSERVED) was 0.97. The fold change (relative to vehicle control = 1, protein TB427.07.2340 40S RIBOSOMAL PROTEIN S15, PUTATIVE) was 0.87, the fold change (relative to vehicle control = 1, protein TB427.07.2570 MRNA […], PUTATIVE) was 0.63 and the fold change (relative to vehicle control = 1, protein TB427.07.4180 FATTY ACID ELONGASE, PUTATIVE) was 0.92. It also gave a fold change (relative to vehicle control = 1, protein TB427.07.7500 THYMINE-7-HYDROXYLASE, PUTATIVE) of 0.88, a fold change (relative to vehicle control = 1, protein TB427.08.3150 T-COMPLEX PROTEIN 1, GAMMA SUBUNIT, PUTATIVE) of 0.99 and a fold change (relative to vehicle control = 1, protein TB427.08.3490 HY[…], CONSERVED) of 0.95. For the same compound, the fold change (relative to vehicle control = 1, protein TB427.08.5460 FLAGELLAR CALCIUM-BINDING PROTEIN) was 0.72, the fold change (relative to vehicle control = 1, protein TB427.08.6110 HY[…], CONSERVED) was 0.82 and the fold change (relative to vehicle control = 1, protein TB427.10.11930 NAD OR NADP DEPENDENT OXIDOREDUCTASE, PUTATIVE) was 0.78. It also gave a fold change (relative to vehicle control = 1, protein TB427.10.12510 P-TYPE H+-ATPASE, PUTATIVE) of 1, a fold change (relative to vehicle control = 1, protein TB427.10.13110 DYNEIN LIGHT CHAIN, PUTATIVE) of 0.88 and a fold change (relative to vehicle control = 1, protein TB427.10.13880 HY[…], CONSERVED) of 0.88. It also gave a fold change (relative to vehicle control = 1, protein TB427.10.14140 PYRUVATE KINASE 1) of 0.93, a fold change (relative to vehicle control = 1, protein TB427.10.14910 SA[…] GLYCOPROTEIN, PUTATIVE) of 0.83 and a fold change (relative to vehicle control = 1, protein TB427.10.15180 […] PROTEIN, PUTATIVE) of 1.2. The fold change (relative to vehicle control = 1, protein TB427.10.2350 PYRUVATE DEH[…] E3 BINDING PROTEIN, PUTATIVE) was 1, the fold change (relative to vehicle control = 1, protein TB427.10.4940 NUCLEAR DBF2-RELATED KINASE) was 0.8 and the fold change (relative to vehicle control = 1, protein TB427.10.7630 HY[…], CONSERVED) was 0.97. It also gave a fold change (relative to vehicle control = 1, protein TB427.10.9800 60S RIBOSOMAL PROTEIN L22) of 0.82, a fold change (relative to vehicle control = 1, protein TB927.10.13360 […] TU, PUTATIVE) of 0.96 and a fold change (relative to vehicle control = 1, protein TB927.1.2330 BETA TUBULIN) of 0.96. For the same compound, the fold change (relative to vehicle control = 1, protein TB927.1.2400 ALPHA TUBULIN) was 0.96, the fold change (relative to vehicle control = 1, protein TB927.10.3280 60S RIBOSOMAL PROTEINS L38, PUTATIVE) was 0.99 and the fold change (relative to vehicle control = 1, protein TB927.10.4180 TFIIF-[…] PHOSPHATASE, PUTATIVE) was 0.97. It also gave a fold change (relative to vehicle control = 1, protein TB927.10.4690 DYNEIN LIGHT CHAIN, PUTATIVE) of 0.9, a fold change (relative to vehicle control = 1, protein TB927.10.5330 40S RIBOSOMAL PROTEIN S18, PUTATIVE) of 0.74 and a fold change (relative to vehicle control = 1, protein TB927.10.6670 DYNEIN LIGHT CHAIN, PUTATIVE) of 0.92. It also gave a fold change (relative to vehicle control = 1, protein TB927.2.2440 […]-ATPASE SUBUNIT 6) of 2.27, a fold change (relative to vehicle control = 1, protein TB927.3.1120 GTP-BINDING NUCLEAR PROTEIN RTB2, PUTATIVE) of 0.9 and a fold change (relative to vehicle control = 1, protein TB927.3.3490 HIGH MOBILITY GROUP PROTEIN, PUTATIVE) of 0.89. The fold change (relative to vehicle control = 1, protein TB927.3.4360 40S RIBOSOMAL PROTEIN S15A, PUTATIVE) was 1.3, the fold change (relative to vehicle control = 1, protein TB927.4.4650 […] SYNTHASE, PUTATIVE) was 0.72 and the fold change (relative to vehicle control = 1, protein TB927.5.1930 HY[…], CONSERVED) was 0.83. The fold change (relative to vehicle control = 1, protein TB927.6.4140 PAR[…] COMPONENT, PUTATIVE) was 0.9, the fold change (relative to vehicle control = 1, protein TB927.7.2500 […] SUBUNIT 1) was 0.91 and the fold change (relative to vehicle control = 1, protein TB927.7.4500 HY[…], CONSERVED) was 0.87. For the same compound, the fold change (relative to vehicle control = 1, protein TB927.8.1510 ATP-DEPENDENT DEAD/H RNA HELICASE, PUTATIVE) was 1, the fold change (vs vehicle control, protein TB09.160.3710 PRO[…] NUCLEAR ANTIGEN (PCNA), PUTATIVE) was 0.94 and the fold change (vs vehicle control, protein TB11.01.4370 HY[…], CONSERVED) was 0.98. The fold change (vs vehicle control, protein TB427TMP.01.8510 T-COMPLEX PROTEIN 1, ALPHA SUBUNIT, PUTATIVE) was 0.9, the fold change (vs vehicle control, protein TB427.01.1670 HY[…], CONSERVED) was 0.93 and the fold change (vs vehicle control, protein TB427.03.4750 AMINOPEPTIDASE, PUTATIVE) was 0.96. For the same compound, the fold change (vs vehicle control, protein TB427.05.3170 RIBOSE-PHOSPHATE PYROPHOSPHOKINASE, PUTATIVE) was 0.92, the fold change (vs vehicle control, protein TB427.06.1070 HY[…], CONSERVED) was 0.95 and the fold change (vs vehicle control, protein TB427.06.4890 S-ADENOSYL[…], PUTATIVE) was 0.98. For the same compound, the fold change (vs vehicle control, protein TB427.08.3660 PROTEIN TRANSPORT PROTEIN SEC23) was 0.95, the fold change (vs vehicle control, protein TB427.10.10980 HEAT SHOCK PROTEIN 83) was 0.99 and the fold change (vs vehicle control, protein TB427.10.11760 PUMILIO/PUF RNA BINDING PROTEIN 6) was 0.91. It also gave a fold change (vs vehicle control, protein TB427.10.14550 ATP-DEPENDENT DEAD/H RNA HELICASE, PUTATIVE) of 0.99, a fold change (vs vehicle control, protein TB427.10.2290 CHAPERONE PROTEIN DNAJ, PUTATIVE) of 0.93 and a fold change (vs vehicle control, protein TB927.5.1630 HY[…], CONSERVED) of 0.91. The fold change (vs vehicle control, protein TB927.6.4980 40S RIBOSOMAL PROTEIN S14) was 1.1.

— paper PMC6199744, “Development of Chemical Proteomics for the Folateome and Analysis of the Kinetoplastid Folateome” (ACS Infectious Diseases, 2018)
